Assay [1] deals with T1, SST5 (Homo sapiens, UniProt P35346).
T1 construct: purchased Perkin Elmer BioSignal; host or cells: HEK 293
The assay is described as follows: GPCR radioligand binding (RLB) assay, somatostatin SST5, [125I]SST-14. Particulars: 10 micromolar compound; for SST5 inhibition at 10 micromolar: recombinant human receptor membranes (HEK 293). The procedure: Recombinant human receptors expressed in HEK 293 cells were used for all experiments. Receptor membrane preparations were purchased from Perkin Elmer BioSignal. The labelled ligand used in somatostatin GPCR RLB assays was [^125I]SST-14 and in melanocortin assays was [^125I]NDP-αMSH. All assays were done in a 96-well plate format using either glass fiber filter mats or filter plates. All reagents purchased were of the highest quality.
Specific assay buffer, incubation and washing conditions were optimized for each receptor however they all followed the same general format. The procedures for both filter mat and filter plate formats are based on the receptor manufacturers recommendations or those described extensively in the literature. The procedures are briefly outlined below.
In assays where filter mats are used we incubate receptor membranes, assay buffer and [^125I] labelled ligand in 96 well microplates. Add compounds to incubation mixture and continue incubation for optimized period. Presoak Filter mat GF/B in 0.5% PEI for ˜2 hr at 4° C. On completion of assay mixture incubation add additional 100 μL/well of assay buffer immediately prior to filtration. Filter the assay mixture onto the GF/B filter mat using a cell harvester. Dry the filter mats prior to sealing them into a scintillation counting bag with scintillant. Radioactivity in each well is detected by liquid scintillation counting.
In assays where filter plates are used Multiscreen glass fiber filter plates (Millipore, Cat No MAFCNOB10) are precoated with 0.5% PEI for ˜2 hr at 4° C. All wells are then washed with 200 µl/well assay buffer and filtered using the Multiscreen Separation System. Subsequently receptor membranes, assay buffer and labelled ligands are added to the wells and equilibrated. Compounds for testing are then added to the mixture and incubation is continued for an optimized time. Plates are then put into the Multiscreen Separation System and the assay mixture is filtered through the plate under vacuum. Each well is then washed several times with assay buffer. Plates are then dried prior to putting sealing tape onto the bottom of the plate. Scintillant is added to each well and radioactivity measured by liquid scintillation counting.
Raw data was analysed according to standard methods using either GraphPad Prism software or IDDBS ActivityBase software.

Assay [2] concerns the target T2, MC4 (Homo sapiens, UniProt P32245).
T2 construct: purchased Perkin Elmer BioSignal; host or cells: HEK 293
Nature of the assay: GPCR radioligand binding (RLB) assay, melanocortin MC4, [125I]NDP-αMSH. Particulars: 10 micromolar compound; recombinant human receptor membranes (HEK 293). In short, it runs like this:
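Competition binding against radioligand ([125I]NDP-αMSH for MC4, [125I]SST-14 for SST5) on membranes of HEK 293 cells carrying the human receptor; buffer and incubation time optimized per receptor. Filtration through 0.5% PEI-treated glass fiber, washing, then scintillation counting.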

The text below walks through data of US7994140B2, “Classes of compounds that interact with GPCRs” (Alchemia Limited, priority 2002, dated 2011).

T1 sequence (P35346 whole entry): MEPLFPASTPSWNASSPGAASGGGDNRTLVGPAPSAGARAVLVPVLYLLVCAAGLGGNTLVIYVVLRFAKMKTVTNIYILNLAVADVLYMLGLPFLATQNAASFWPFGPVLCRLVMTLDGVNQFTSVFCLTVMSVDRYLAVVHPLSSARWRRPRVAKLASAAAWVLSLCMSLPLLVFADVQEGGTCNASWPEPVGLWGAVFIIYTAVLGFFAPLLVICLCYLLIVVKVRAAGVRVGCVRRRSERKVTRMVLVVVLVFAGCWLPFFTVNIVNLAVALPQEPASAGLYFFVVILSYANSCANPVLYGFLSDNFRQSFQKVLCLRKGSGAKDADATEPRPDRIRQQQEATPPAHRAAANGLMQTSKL
T2 sequence (P32245 whole entry): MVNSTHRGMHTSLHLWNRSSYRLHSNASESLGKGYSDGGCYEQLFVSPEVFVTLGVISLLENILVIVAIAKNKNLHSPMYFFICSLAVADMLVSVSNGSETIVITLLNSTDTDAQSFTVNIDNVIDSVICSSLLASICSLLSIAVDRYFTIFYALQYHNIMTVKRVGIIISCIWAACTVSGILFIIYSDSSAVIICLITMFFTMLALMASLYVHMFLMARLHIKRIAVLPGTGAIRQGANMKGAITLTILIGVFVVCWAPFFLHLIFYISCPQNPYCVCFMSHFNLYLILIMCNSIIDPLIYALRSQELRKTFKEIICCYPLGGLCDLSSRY

For the compound `COC[C@H]1OC(OCc2ccc(-c3ccccc3)cc2)[C@H](NC(=O)CNC(=N)N)[C@@H](OCc2ccc(-c3ccccc3)cc2)[C@@H]1O` (stereo partly shown) [Compound 1], the “SST5 inhibition at 10 micromolar” value in assay [1] is listed as “+ (Indicates inhibition greater than . . . 50%)”. Moreover, in assay [2], the “MC4 inhibition at 10 micromolar” value is given as “+ (Indicates inhibition greater than . . . 50%)”.

As for `COC[C@H]1OC(OCc2ccccc2)[C@H](NC(=O)CCNC(=N)N)[C@@H](OCc2ccc(-c3ccccc3)cc2)[C@@H]1O` (stereo partly shown) [Compound 6], the “SST5 inhibition at 10 micromolar” value in assay [1] is on record as “+ (Indicates inhibition greater than . . . 50%)”. In addition, the “MC4 inhibition at 10 micromolar” value in assay [2] is “+ (Indicates inhibition greater than . . . 50%)”. For `COC[C@H]1OC(OCc2ccc(Cl)cc2)[C@H](NC(=O)CCNC(=N)N)[C@@H](OCc2ccc(-c3ccccc3)cc2)[C@@H]1O` (stereo partly shown) [Compound 13], the “SST5 inhibition at 10 micromolar” value in assay [1] was “+ (Indicates inhibition greater than . . . 50%)”. Besides, the “MC4 inhibition at 10 micromolar” value in assay [2] is “+ (Indicates inhibition greater than . . . 50%)”.

Turning to `COC[C@H]1OC(OCc2ccc(Cl)cc2)[C@H](NC(=O)CCNC(=N)N)[C@@H](OCc2ccc3ccccc3c2)[C@@H]1O` (stereo partly shown) [Compound 14], the “SST5 inhibition at 10 micromolar” value in assay [1] is listed as “+ (Indicates inhibition greater than . . . 50%)”. Besides, the “MC4 inhibition at 10 micromolar” value in assay [2] was “+ (Indicates inhibition greater than . . . 50%)”. In the case of `COC[C@H]1OC(OCc2ccc(Cl)cc2)[C@H](NC(=O)CCCNC(=N)N)[C@@H](OCc2ccc3ccccc3c2)[C@@H]1O` (stereo partly shown) [Compound 15], the “SST5 inhibition at 10 micromolar” value in assay [1] is “+ (Indicates inhibition greater than . . . 50%)”. The “MC4 inhibition at 10 micromolar” value in assay [2] is reported as “+ (Indicates inhibition greater than . . . 50%)”.

As to `COC[C@H]1OC(OCc2ccc(-c3ccccc3)cc2)[C@H](NC(=O)CCCN)[C@@H](OCc2ccc(-c3ccccc3)cc2)[C@@H]1O` (stereo partly shown) [Compound 28], the “SST5 inhibition at 10 micromolar” value in assay [1] is “+ (Indicates inhibition greater than . . . 50%)”. In addition, the “MC4 inhibition at 10 micromolar” value in assay [2] is reported as “+ (Indicates inhibition greater than . . . 50%)”. `COC[C@H]1OC(OCc2ccc(-c3ccccc3)cc2)[C@H](NC(=O)CCCNC(=N)N)[C@@H](OCc2ccc(-c3ccccc3)cc2)[C@@H]1O` (stereo partly shown) [Compound 29]: the “SST5 inhibition at 10 micromolar” value in assay [1] is “+ (Indicates inhibition greater than . . . 50%)”. In addition, the “MC4 inhibition at 10 micromolar” value in assay [2] is “+ (Indicates inhibition greater than . . . 50%)”. `COC[C@H]1OC(OCc2ccc(-c3ccccc3)cc2)[C@H](NC(=O)CCCNC(=N)N)[C@@H](OCc2ccc3ccccc3c2)[C@@H]1O` (stereo partly shown) [Compound 30]: the “SST5 inhibition at 10 micromolar” value in assay [1] is recorded as “+ (Indicates inhibition greater than . . . 50%)”. Moreover, in assay [2], the “MC4 inhibition at 10 micromolar” value was “+ (Indicates inhibition greater than . . . 50%)”. For `COC[C@H]1OC(OCc2ccc(-c3ccccc3)cc2)[C@H](NC(=O)CCNC(=N)N)[C@@H](OCc2ccc(Cl)cc2)[C@@H]1O` (stereo partly shown) [Compound 32], in assay [1], the “SST5 inhibition at 10 micromolar” value was “+ (Indicates inhibition greater than . . . 50%)”. For the same compound, the “MC4 inhibition at 10 micromolar” value in assay [2] was “+ (Indicates inhibition greater than . . . 50%)”. For `COC[C@H]1OC(OCc2ccc(-c3ccccc3)cc2)[C@H](NC(=O)CCCN)[C@@H](OCc2ccc(Cl)cc2)[C@@H]1O` (stereo partly shown) [Compound 33], the “SST5 inhibition at 10 micromolar” value in assay [1] is “+ (Indicates inhibition greater than . . . 50%)”. The “MC4 inhibition at 10 micromolar” value in assay [2] is given as “+ (Indicates inhibition greater than . . . 50%)”.

Regarding `COC[C@H]1OC(OCc2ccc(-c3ccccc3)cc2)[C@H](NC(=O)CCCNC(=N)N)[C@@H](OCc2ccc(Cl)cc2)[C@@H]1O` (stereo partly shown) [Compound 34], in assay [1], the “SST5 inhibition at 10 micromolar” value was “+ (Indicates inhibition greater than . . . 50%)”. Besides, the “MC4 inhibition at 10 micromolar” value in assay [2] is on record as “+ (Indicates inhibition greater than . . . 50%)”. As for `COC[C@H]1OC(OCc2ccc3ccccc3c2)[C@H](NC(=O)CNC(=N)N)[C@@H](OCc2ccc(-c3ccccc3)cc2)[C@@H]1O` (stereo partly shown) [Compound 35], in assay [1], the “SST5 inhibition at 10 micromolar” value is listed as “+ (Indicates inhibition greater than . . . 50%)”. For the same compound, the “MC4 inhibition at 10 micromolar” value in assay [2] is on record as “+ (Indicates inhibition greater than . . . 50%)”.

In the case of `COC[C@H]1OC(OCc2ccc3ccccc3c2)[C@H](NC(=O)CCNC(=N)N)[C@@H](OCc2ccc(-c3ccccc3)cc2)[C@@H]1O` (stereo partly shown) [Compound 36], the “SST5 inhibition at 10 micromolar” value in assay [1] is “+ (Indicates inhibition greater than . . . 50%)”. In addition, in assay [2], the “MC4 inhibition at 10 micromolar” value is reported as “+ (Indicates inhibition greater than . . . 50%)”. Take `COC[C@H]1OC(OCc2ccc3ccccc3c2)[C@H](NC(=O)CCCN)[C@@H](OCc2ccc(-c3ccccc3)cc2)[C@@H]1O` (stereo partly shown) [Compound 37]: the “SST5 inhibition at 10 micromolar” value in assay [1] was “+ (Indicates inhibition greater than . . . 50%)”. In addition, the “MC4 inhibition at 10 micromolar” value in assay [2] is “+ (Indicates inhibition greater than . . . 50%)”. `COC[C@H]1OC(OCc2ccc3ccccc3c2)[C@H](NC(=O)CCNC(=N)N)[C@@H](OCc2ccc3ccccc3c2)[C@@H]1O` (stereo partly shown) [Compound 38]: the “SST5 inhibition at 10 micromolar” value in assay [1] is “+ (Indicates inhibition greater than . . . 50%)”. Moreover, in assay [2], the “MC4 inhibition at 10 micromolar” value was “+ (Indicates inhibition greater than . . . 50%)”. On to `COC[C@H]1OC(OCc2ccc3ccccc3c2)[C@H](NC(=O)CCCN)[C@@H](OCc2ccc3ccccc3c2)[C@@H]1O` (stereo partly shown) [Compound 39], for which, in assay [1], the “SST5 inhibition at 10 micromolar” value is on record as “+ (Indicates inhibition greater than . . . 50%)”. The “MC4 inhibition at 10 micromolar” value in assay [2] was “+ (Indicates inhibition greater than . . . 50%)”.

For the compound `COC[C@H]1OC(OCc2ccc3ccccc3c2)[C@H](NC(=O)CCCNC(=N)N)[C@@H](OCc2ccc3ccccc3c2)[C@@H]1O` (stereo partly shown) [Compound 40], the “SST5 inhibition at 10 micromolar” value in assay [1] is recorded as “+ (Indicates inhibition greater than . . . 50%)”. In addition, the “MC4 inhibition at 10 micromolar” value in assay [2] was “+ (Indicates inhibition greater than . . . 50%)”.

Consider `COC[C@H]1OC(OCc2ccc3ccccc3c2)[C@H](NC(=O)CCCNC(=N)N)[C@@H](OCc2ccc(Cl)cc2)[C@@H]1O` (stereo partly shown) [Compound 43], for which the “SST5 inhibition at 10 micromolar” value in assay [1] is reported as “+ (Indicates inhibition greater than . . . 50%)”. Besides, in assay [2], the “MC4 inhibition at 10 micromolar” value is “+ (Indicates inhibition greater than . . . 50%)”. For `COC[C@H]1OC(OCc2ccc(Cl)cc2)[C@H](NC(=O)CCCNC(=N)N)[C@@H](OCc2ccc(-c3ccccc3)cc2)[C@@H]1O` (stereo partly shown) [Compound 45], the “SST5 inhibition at 10 micromolar” value in assay [1] is recorded as “+ (Indicates inhibition greater than . . . 50%)”. For the same compound, in assay [2], the “MC4 inhibition at 10 micromolar” value was “+ (Indicates inhibition greater than . . . 50%)”. Take `COC[C@H]1OC(OCc2ccc(Cl)cc2)[C@H](NC(=O)CCCN)[C@@H](OCc2ccc3ccccc3c2)[C@@H]1O` (stereo partly shown) [Compound 46]: in assay [1], the “SST5 inhibition at 10 micromolar” value was “+ (Indicates inhibition greater than . . . 50%)”. For the same compound, the “MC4 inhibition at 10 micromolar” value in assay [2] is “+ (Indicates inhibition greater than . . . 50%)”. Turning to `CSC1OC(COC(=O)c2ccccc2)C(O)C(OCc2cccc(N)c2)C1NCc1ccc(Cl)cc1` (stereo not shown) [Compound 312], in assay [1], the “SST5 inhibition at 10 micromolar” value is reported as “+ (Indicates inhibition greater than . . . 50%)”. Still for that read-out and setting: the value for `CSC1OC(COC(=O)Cc2c[nH]c3ccccc23)C(O)C(OCc2cccc(N)c2)C1NCc1ccc(Cl)cc1` (stereo not shown) [Compound 315] was “+ (Indicates inhibition greater than . . . 50%)”; that for `CSC1O[C@H](COCc2ccccc2)[C@@H](O)[C@H](OCc2cccc(N)c2)[C@H]1NC(=O)c1ccccc1` (stereo partly shown) [Compound 316] was “+ (Indicates inhibition greater than . . . 50%)”. Consider `CSC1O[C@H](COCc2ccccc2)[C@@H](O)[C@H](OCc2cccc(N)c2)[C@H]1NC(=O)Cc1c[nH]c2ccccc12` (stereo partly shown) [Compound 319], for which, in assay [1], the “SST5 inhibition at 10 micromolar” value is “+ (Indicates inhibition greater than . . . 50%)”.

As to `CSC1O[C@H](COCc2ccc(Cl)cc2)[C@@H](O)[C@H](OCc2cccc(N)c2)[C@H]1NC(=O)c1ccccc1` (stereo partly shown) [Compound 321], the “SST5 inhibition at 10 micromolar” value in assay [1] is “+ (Indicates inhibition greater than . . . 50%)”. Still for that read-out and setting: under `CSC1O[C@H](COCc2ccc(Cl)cc2)[C@@H](O)[C@H](OCc2cccc(N)c2)[C@H]1NC(=O)Cc1ccccc1` (stereo partly shown) [Compound 322] stands “+ (Indicates inhibition greater than . . . 50%)”; under `CSC1OC(COCc2cccc(N)c2)C(O)C(OCc2ccccc2)C1NC(=O)c1ccccc1` (stereo not shown) [Compound 326], “+ (Indicates inhibition greater than . . . 50%)”. Regarding `CSC1OC(COCc2cccc(N)c2)C(O)C(OCc2ccccc2)C1NC(=O)Cc1c[nH]c2ccccc12` (stereo not shown) [Compound 329], the “SST5 inhibition at 10 micromolar” value in assay [1] is on record as “+ (Indicates inhibition greater than . . . 50%)”.

`CSC1O[C@H](COCc2cccc(N)c2)[C@@H](O)[C@H](OCc2ccccc2)[C@H]1NC(=O)CCC1CNc2ccccc21` (stereo partly shown) [Compound 337]: the “SSTS inhibition at 10 micromolar” value in assay [1] (Example Library 8) is listed as “+ (Indicates inhibition greater than . . . 50%)”.
